Patent US20070270436A1, “NOVEL AMINO- AND IMINO-ALKYLPIPERAZINES” (Recordati Ireland Limited, priority 2006, published 2007)

What was measured:
[1] = target: T1, human 5HT1A-serotonergic receptor (Homo sapiens, UniProt P08908); experiment: Radioligand binding to recombinant 5-HT1A receptor ([3H]8-OH-DPAT, HeLa cell membranes); conditions: 1 nM [3H]8-OH-DPAT; Ki from IC50 by the Cheng equation; read-out: Ki (nM), binding affinity for 5HT1A receptor
T1 construct: expressed in transfected cells; host or cells: HeLa (human), stably transfected; membranes
T1 sequence (P08908 1-422): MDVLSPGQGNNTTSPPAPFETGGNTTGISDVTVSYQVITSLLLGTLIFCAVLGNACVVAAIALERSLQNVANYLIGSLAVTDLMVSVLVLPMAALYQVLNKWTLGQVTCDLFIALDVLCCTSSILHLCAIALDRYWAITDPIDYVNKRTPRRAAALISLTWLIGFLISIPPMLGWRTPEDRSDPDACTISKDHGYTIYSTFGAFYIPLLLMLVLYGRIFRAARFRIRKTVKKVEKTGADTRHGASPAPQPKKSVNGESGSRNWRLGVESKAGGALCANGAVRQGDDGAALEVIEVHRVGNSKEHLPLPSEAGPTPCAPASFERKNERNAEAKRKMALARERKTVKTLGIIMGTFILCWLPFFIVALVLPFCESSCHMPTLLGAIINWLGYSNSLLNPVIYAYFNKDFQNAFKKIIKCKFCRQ
Method: Genomic clone G-21 encoding the human 5HT1A-serotonergic receptor was stably transfected in a human cell line (HeLa). HeLa cells were grown as monolayers in Dulbecco's modified Eagle medium (DMEM), containing 10% fetal bovine serum and gentamycin (100 μg/ml) at 37° C. in a humidified atmosphere of 5% CO2 and air. The cells were detached from the growth flask at 95% confluence by a cell scraper and were lysed in cold 5 mM Tris and 5 mM EDTA buffer (pH 7.4). The homogenates were centrifuged at 40000×g×20 minutes and the pellets were resuspended in a small volume of cold 5 mM Tris and 5 mM EDTA buffer (pH 7.4) and immediately frozen and stored at −70° C. until use. On the day of experiment, the cell membranes were resuspended in incubation buffer: 50 mM Tris (pH 7.4), 2.5 mM MgCl2, 10 μM pargyline (Fargin et al., Nature 335, 358-360, 1988). The membranes were incubated in a final volume of 0.32 ml for 30 minutes at 30° C. with 1 nM [^3H]8-OH-DPAT, in the absence or presence of the test compounds. Non-specific binding was determined in the presence of 10 μM 5-HT. Incubation was stopped by addition of cold Tris buffer and rapid filtration through UniFilter GF/C plate.
The affinity of the tested compounds was evaluated as inhibition of specific binding of the radioligand to 5-HT1A receptor (IC50) by using the non-linear curve-fitting program Allfit (De Lean et al., Am. J. Physiol. 235, E97-E102 (1978)). The IC50 value was converted to an affinity constant (Ki) by the equation of Cheng et al., Biochem. Pharmacol. 22, 3099-3108 (1973).

[2] = target: T2, human cloned 5-HT1A receptors (Homo sapiens, UniProt P08908); experiment: [35S]GTPγS binding, functional activity; format: biochemical; parameters: key: neutral antagonists (NA); inverse agonists (IA); conditions: HeLa membranes with human 5-HT1A
T2 construct: expressed in transfected cells; host or cells: HeLa (human), stably transfected; membranes
T2 sequence (P08908 1-422): T1 sequence (P08908 1-422)
Method: On the date of the experiment, cell membranes from HeLa cells transfected with human cloned 5-HT1A receptors were resuspended in buffer pH 7.4 containing 20 mM HEPES, 3 mM MgCl2 and 120 mM NaCl (Stanton, J. A.; Beer, M. S. Eur. J. Pharmacol. 320, 267-275, 1997). The membranes were incubated with 10 μM GDP and decreasing concentrations of test drugs (from 100 μM to 0.1 nM) or decreasing concentrations of 5-HT (from 100 μM to 0.1 nM, reference curve) for 20 min at 30° C. in a final volume of about 0.25 ml. [^35S]GTPγS (200-250 pM in 10 μl) was added to samples and incubated for a further 30 min at 30° C. Non-specific binding was determined in the presence of 10 μM GTPγS. The incubation was stopped by addition of ice-cold HEPES buffer and rapid filtration on Unifilter GF/C filters, using a Filtermate cell harvester (Packard). The filters were washed four times with total 1.2 ml of same buffer. Radioactivity was counted by liquid scintillation spectrometry with efficiency >90% (TopCount Packard). Stimulation of [^35S]GTPγS binding induced by the compounds tested was expressed as % increase in binding above basal value, being the maximal stimulation observed with 5-HT taken as 100%. The concentration-response curve of the agonistic activity was analyzed by non linear fitting program (De Lean et al., Am. J. Physiol. 235, E97-E102, 1978).
A stimulation of [^35S]GTPγS binding represented the functional correlate of the binding of an agonist compound at the 5-HT1A receptors. Stimulation induced by the endogenous ligand 5-HT was considered the maximal stimulation attainable. Compounds stimulating [^35S]GTPγS binding at a lower level were considered as partial agonists. […] Compounds that reduced [^35S]GTPγS binding were considered as inverse agonists.

Structure (SMILES)	Ki [1]	Functional Activity [2]
COc1ccccc1N1CCN(CC[C@@H](c2ccccc2F)[C@H](NC(=S)N(C)C)C2CCCCC2)CC1 (single isomer, unassigned) [Example 24A, 3-{(1R,2S) or (1S,2R)-1-Cyclohexyl-2-(2-fluorophenyl)-4-[4-(2-methoxyphenyl)piperazin-1-yl]butyl}-1,1-dimethylthiourea]	0.7 nM	IA
CC(=O)N(C)C(C1CCCCC1)C(CCN1CCN(c2cccc3c2OCCO3)CC1)c1ccccc1F (stereo not drawn) [Example 41, N-[1-Cyclohexyl-4-[4-(2,3-dihydrobenzo[1,4]dioxin-5-yl)piperazin-1-yl]-2-(2-fluoro-phenyl)butyl]-N-methylacetamide]	0.9 nM	IA
COc1ccccc1N1CCN(CC[C@@H](c2ccccc2F)[C@@H](C2CCCCC2)N(C)C(=S)N(C)C)CC1 (racemic) [Example 53, 1-{(RS,SR)-1-Cyclohexyl-2-(2-fluorophenyl)-4-[4-(2-methoxyphenyl)piperazin-1-yl]butyl}-1,3,3-trimethylthiourea]	1.7 nM	IA
COc1ccccc1N1CCN(CCC(c2ccccc2F)C(NCc2ccccc2)C2CCCCC2)CC1 (stereo not drawn) [Example 13, (RS,SR)- and (RS,RS)-N-Benzyl-{1-cyclohexyl-2-(2-fluorophenyl)-4-[4-(2-methoxyphenyl)piperazin-1-yl]butyl}amine]	0.3 nM	IA
COc1ccccc1N1CCN(CC[C@@H](c2ccccc2F)[C@@H](C2CCCCC2)N(C(C)=O)C(C)=O)CC1 (racemic) [Example 8, N-Acetyl-N-{(RS,SR)-1-cyclohexyl-2-(2-fluorophenyl)-4-[4-(2-methoxyphenyl)piperazin-1-yl]butyl}acetamide]	0.68 nM	IA
CON[C@H](C1CCCCC1)[C@@H](CCN1CCN(c2ccccc2OC)CC1)c1ccccc1F (racemic) [Example 4a, (RS,SR)-N-{1-Cyclohexyl-2-(2-fluorophenyl)-4-[4-(2-methoxyphenyl)piperazin-1-yl]butyl}-O-methylhydroxylamine]	0.68 nM	IA
